According to ChEMBL document CHEMBL3112394, “Identification of the 5,5-dioxo-7,8-dihydro-6H-thiopyrano[3,2-d]pyrimidine derivatives as highly selective PDE4B inhibitors” (Bioorg Med Chem Lett, 2014):

What was measured:
[1] = target: 3',5'-cyclic-AMP phosphodiesterase 4B (Homo sapiens, UniProt Q07343); experiment: Inhibition of full-length human PDE4B2 assessed as cAMP hydrolysis preincubated for 20 mins followed by cAMP addition measured after 30 mins
[2] = target: T1, 3',5'-cyclic-AMP phosphodiesterase 4D (Homo sapiens, UniProt Q08499); experiment: Inhibition of full-length human PDE4D2 assessed as cAMP hydrolysis preincubated for 20 mins followed by cAMP addition measured after 30 mins
T1 sequence (Q08499 whole entry): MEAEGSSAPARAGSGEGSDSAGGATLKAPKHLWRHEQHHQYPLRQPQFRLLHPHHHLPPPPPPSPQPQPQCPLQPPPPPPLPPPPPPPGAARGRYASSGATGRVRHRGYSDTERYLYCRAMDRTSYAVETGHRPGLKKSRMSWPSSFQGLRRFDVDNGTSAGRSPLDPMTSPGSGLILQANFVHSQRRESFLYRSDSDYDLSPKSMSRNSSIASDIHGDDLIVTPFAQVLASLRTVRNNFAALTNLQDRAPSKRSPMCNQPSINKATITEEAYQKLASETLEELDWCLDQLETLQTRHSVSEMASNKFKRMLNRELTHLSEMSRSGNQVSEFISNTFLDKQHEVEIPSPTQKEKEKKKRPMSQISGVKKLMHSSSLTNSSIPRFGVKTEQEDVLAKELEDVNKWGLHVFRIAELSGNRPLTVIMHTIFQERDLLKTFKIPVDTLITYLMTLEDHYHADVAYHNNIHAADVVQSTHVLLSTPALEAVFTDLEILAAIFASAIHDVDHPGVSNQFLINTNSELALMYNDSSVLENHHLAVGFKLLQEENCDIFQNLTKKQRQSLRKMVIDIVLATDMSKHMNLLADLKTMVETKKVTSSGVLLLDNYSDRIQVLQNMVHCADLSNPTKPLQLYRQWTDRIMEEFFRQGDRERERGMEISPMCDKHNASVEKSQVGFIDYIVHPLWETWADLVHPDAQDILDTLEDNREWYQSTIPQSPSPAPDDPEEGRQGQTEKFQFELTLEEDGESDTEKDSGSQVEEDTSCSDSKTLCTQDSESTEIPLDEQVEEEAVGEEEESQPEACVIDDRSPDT

Homo sapiens [3] = species: Homo sapiens; experiment: Selectivity ratio of IC50 for full-length human PDE4D2 to IC50 for full-length human PDE4B2
[4] = Antiinflammatory activity in Balb/c mouse splenocytes assessed as inhibition of LPS-induced TNF-alpha production after 18 to 24 hrs; format: functional, cell-based; settings: Splenocyte
Homo sapiens [5] = species: Homo sapiens; experiment: Selectivity ratio of IC50 for recombinant human PDE4D (78 to 508) to IC50 for recombinant human PDE4B (152 to 564)
[6] = target: T1, 3',5'-cyclic-AMP phosphodiesterase 4D; experiment: Inhibition of recombinant human PDE4D (78 to 508)

3',5'-cyclic-AMP phosphodiesterase 4B, sequence (Q07343 whole entry): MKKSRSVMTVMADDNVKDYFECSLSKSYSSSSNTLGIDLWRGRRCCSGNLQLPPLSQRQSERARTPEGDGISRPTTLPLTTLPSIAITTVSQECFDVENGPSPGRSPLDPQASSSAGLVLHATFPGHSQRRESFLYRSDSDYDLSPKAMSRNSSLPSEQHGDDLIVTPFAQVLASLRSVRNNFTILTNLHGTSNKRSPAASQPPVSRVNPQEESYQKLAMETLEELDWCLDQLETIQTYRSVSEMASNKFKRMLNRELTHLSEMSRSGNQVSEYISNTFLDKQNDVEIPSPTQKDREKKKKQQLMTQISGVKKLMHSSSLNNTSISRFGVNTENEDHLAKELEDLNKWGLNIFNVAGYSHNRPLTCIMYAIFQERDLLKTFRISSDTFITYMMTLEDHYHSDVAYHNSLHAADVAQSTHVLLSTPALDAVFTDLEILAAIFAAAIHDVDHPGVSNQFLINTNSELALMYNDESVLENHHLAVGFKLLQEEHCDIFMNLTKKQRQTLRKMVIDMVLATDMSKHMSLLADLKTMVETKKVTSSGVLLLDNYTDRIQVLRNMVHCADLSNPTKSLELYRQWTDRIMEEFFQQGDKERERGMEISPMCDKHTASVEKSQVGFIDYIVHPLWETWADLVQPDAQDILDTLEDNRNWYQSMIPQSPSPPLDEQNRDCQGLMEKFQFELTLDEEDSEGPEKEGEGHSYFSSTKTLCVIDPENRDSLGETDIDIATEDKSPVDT

IC50 [1] [nM]	IC50 [2] [nM]	Ratio IC50 (Homo sapiens [3])	IC50 [4] [nM]	Ratio IC50 (Homo sapiens [5])	IC50 [6] [nM]	Compound
140	2200	16				COc1ccc(-c2nc3c(c(Nc4ccc(CC(=O)O)cc4)n2)SCCC3)c(F)c1F
8.3	400	48				O=C(O)Cc1ccc(Nc2nc(-c3cc4ccccc4s3)nc3c2S(=O)(=O)CCC3)cc1
44	1500	34				COc1ccc(-c2nc3c(c(Nc4ccc(CC(=O)O)cc4)n2)S(=O)(=O)CCC3)cc1
30	290	9.7				COc1cccc2cc(-c3nc4c(c(Nc5ccc(CC(=O)O)cc5)n3)S(=O)(=O)CCC4)ccc12
120	1800	15				COc1cccc(-c2nc3c(c(Nc4ccc(CC(=O)O)cc4)n2)SCCC3)c1
16	1300	81				COc1ccc(-c2nc3c(c(Nc4cc(F)c(CC(=O)O)cc4F)n2)S(=O)(=O)CCC3)cc1F
11	280	25				COc1ccc(-c2nc3c(c(Nc4ccc(CC(=O)O)cc4)n2)SCCC3)cc1
8.2	1400	171	131			COc1ccc(-c2nc3c(c(Nc4ccc(CC(=O)O)c(F)c4)n2)S(=O)(=O)CCC3)c(F)c1F
38	790	21				CN(C)c1ccc(-c2nc3c(c(Nc4ccc(CC(=O)O)cc4)n2)SCCC3)cc1
70	180	2.6		12	260	CCCCNC(=O)Cc1ccc(Nc2nc(-c3ccccc3)nc3c2S(=O)(=O)CCC3)cc1
57	680	12				O=C(O)Cc1ccc(Nc2nc(-c3cccc(F)c3)nc3c2SCCC3)cc1
140	7400	53				COc1ccc(-c2nc3c(c(Nc4ccc(CC(=O)O)cc4)n2)SCCC3)cn1
120	420	3.5				O=C(O)Cc1ccc(Nc2nc(-c3ccc(Cl)cc3)nc3c2SCCC3)cc1
49	600	12				COc1ccc(-c2nc3c(c(Nc4cc(Cl)c(CC(=O)O)cc4Cl)n2)S(=O)(=O)CCC3)cc1F
880	3400	3.9				O=C(O)Cc1ccc(Nc2nc(-c3ccccc3F)nc3c2SCCC3)cc1
210	1300	6.2		45	1300	O=C(O)Cc1ccc(Nc2nc(-c3ccccc3)nc3c2SCCC3)cc1
13	1300	100				COc1ccc(-c2nc3c(c(Nc4ccc(CC(=O)O)cc4)n2)S(=O)(=O)CCC3)cc1Cl
3	1300	433	11			COc1ccc(-c2nc3c(c(Nc4ccc(CC(=O)O)c(F)c4)n2)S(=O)(=O)CCC3)cc1Cl
3.8	600	158	11			O=C(O)Cc1ccc(Nc2nc(-c3cc4ccccc4s3)nc3c2S(=O)(=O)CCC3)cc1F
46	3400	74				COc1ccc(-c2nc3c(c(Nc4ccc(CC(=O)O)cc4)n2)S(=O)(=O)CCC3)c(F)c1F
7.5	1300	173	96			COc1ccc(-c2nc3c(c(Nc4ccc(CC(=O)O)c(F)c4)n2)S(=O)(=O)CCC3)cc1
